The source of these data is patent US20120214847A1, “2-[1-PHENYL-5-HYDROXY-4a-SUBSTITUTED-HEXAHYDROCYCLOPENTA[F]INDAZOL-5-YL]ETHYL PHENYL DERIVATIVES AS GLUCOCORTICOID RECEPTOR LIGANDS” (Merck Sharp & Dohme Corp., priority 2009, published 2012).

This assay has as its target T1, glucocorticoid receptor (Homo sapiens, UniProt P04150).
T1 construct: endogenous in cells; host or cells: HeLa (ATCC) cell lysate supernatant
T1 sequence (P04150 1-777): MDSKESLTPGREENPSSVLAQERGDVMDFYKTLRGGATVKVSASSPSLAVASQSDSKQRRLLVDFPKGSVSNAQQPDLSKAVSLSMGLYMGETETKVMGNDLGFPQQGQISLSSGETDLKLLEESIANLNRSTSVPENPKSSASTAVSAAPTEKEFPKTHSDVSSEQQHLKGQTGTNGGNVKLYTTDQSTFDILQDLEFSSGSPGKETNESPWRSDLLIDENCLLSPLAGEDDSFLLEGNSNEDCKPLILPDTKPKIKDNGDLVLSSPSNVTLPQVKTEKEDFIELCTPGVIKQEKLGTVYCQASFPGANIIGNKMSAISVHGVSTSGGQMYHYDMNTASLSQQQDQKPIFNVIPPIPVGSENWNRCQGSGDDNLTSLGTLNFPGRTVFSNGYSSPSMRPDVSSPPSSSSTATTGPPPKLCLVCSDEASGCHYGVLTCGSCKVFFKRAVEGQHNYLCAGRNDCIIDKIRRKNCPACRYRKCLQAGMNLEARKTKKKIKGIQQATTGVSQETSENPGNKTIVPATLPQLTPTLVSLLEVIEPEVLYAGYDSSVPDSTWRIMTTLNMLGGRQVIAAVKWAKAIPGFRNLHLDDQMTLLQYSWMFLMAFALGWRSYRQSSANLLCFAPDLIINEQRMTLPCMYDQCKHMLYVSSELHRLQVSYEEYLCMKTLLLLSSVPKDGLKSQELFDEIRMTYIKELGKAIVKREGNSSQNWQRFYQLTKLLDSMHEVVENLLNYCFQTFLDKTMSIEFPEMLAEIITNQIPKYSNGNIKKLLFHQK
Kind of assay: Ligand binding assay (GRBind), 3H-dexamethasone displacement in HeLa cell lysate. Conditions: 3H-DEX tracer. Summed up: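 Cytosolic supernatant from HeLa cells in TEGM buffer (pH 7.2, with molybdate) was incubated overnight at 4 °C with 3H-dexamethasone (6 nM trace solution) and serially diluted compound, with 2% ethanol. Bound receptor was captured on hydroxylapatite, filtered and counted by scintillation. IC50s were calculated using dexamethasone as reference.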

Usually Ki stands for the dissociation constant of the complex between target and ligand, obtained from inhibition or displacement. `CC[C@]12Cc3cnn(-c4ccccc4)c3C=C1CC[C@@]2(O)CC(O)c1ccccn1` (single isomer, unassigned) [Example 82a] had a Ki of 11.3 nM.
As for `OCc1ccccc1CC[C@]1(O)CCC2=Cc3c(cnn3-c3ccc(F)cc3)C[C@@]21C1CC1` [Example 2, (4aR,5R)-4a-Cyclopropyl-1-(4-fluorophenyl)-5-{2-[2-(hydroxymethyl)phenyl]ethyl}-1,4,4a,5,6,7-hexahydrocyclopenta[f]indazol-5-ol], the Ki amounted to 1.32 nM.
The molecule `NC(=O)C(O)c1ccccc1CC[C@]1(O)CCC2=Cc3c(cnn3-c3ccc(F)cc3)C[C@@]21C1CC1` (single isomer, unassigned) [Example 3a] came in with a Ki of 1.8 nM.
`CC[C@]12Cc3cnn(-c4ccccc4)c3C=C1CC[C@@]2(O)CC(O)c1ccccn1` (single isomer, unassigned) [Example 82b]: the affinity corresponds to a Ki of 5.46 nM.
As to `CC[C@]12Cc3cnn(-c4ccccc4)c3C=C1CC[C@@]2(O)CCc1ncccc1S(=O)(=O)C(C)C` [Example 81, (4aS,5R)-4a-Ethyl-5-{2-[3-(iso-propylsulfonyl)pyridin-2-yl]ethyl}-1-phenyl-1,4,4a,5,6,7-hexahydrocyclopenta[f]indazol-5-ol], the Ki worked out at 7.3 nM.
Then `OC(C[C@]1(O)CCC2=Cc3c(cnn3-c3ccc(F)cc3)C[C@@]21C1CC1)c1ccc(F)cn1` (single isomer, unassigned) [Example 79b], with 1.55 nM; and `CC[C@]12Cc3cnn(-c4ccc(F)cc4)c3C=C1CC[C@@]2(O)CCc1ncccc1S(C)(=O)=O` [Example 80, (4aS,5R)-4a-Ethyl-1-(4-fluorophenyl)-5-{2-[3-(methylsulfonyl)pyridin-2-yl]ethyl}-1,4,4a,5,6,7-hexahydrocyclopenta[f]indazol-5-ol], with 1.32 nM.
